These results are taken from patent US7884070B2, “Linear cationic peptides having antibacterial and/or antifungal properties” (priority 2002, dated 2011).

The subject of data set [1] is Acinetobacter baumanii ATCC 19606. Format: cell-based.
Data set [2] deals with Citrobacter freundii ATCC 8090. The format is cell-based.
Data set [3] deals with Enterobacter aerogenes ATCC 13048. Format: cell-based.
Data set [4] has as its system Enterobacter cloacae ATCC 23355. The format is cell-based.
Data set [5] relates to Escherichia coli ATCC 25922. The format is cell-based.
The subject of data set [6] is Escherichia coli ATCC 35218. Format: cell-based.
Data set [7] has as its system Haemophilus influenzae ATCC 49247. Format: cell-based.
Data set [8] relates to Klebsiella pneumoniae ATCC 13883. The format is cell-based.
Data set [9] relates to Listeria monocytogenes ATCC 19115. Format: cell-based.
The subject of the next data set is Neisseria sica ATCC 9913. The format is cell-based.
Data set [10] concerns Proteus vulgaris ATCC 13315. The format is cell-based.
Data set [11] relates to Pseudomonas aeruginosa ATCC 27853. The format is cell-based.
Data set [12] concerns Salmonella typhimurium ATCC 14028. The format is cell-based.
Data set [13] has as its system Serratia marcescens ATCC 8100. The format is cell-based.
The test system of data set [14] is Shigella sonnei ATCC 25931. The method, then:
The MIC values were determined by the method of microdilution in liquid medium (NCCLS M7A5) for all of the bacterial species on 96-well polystyrene plates.
The culture medium was Mueller-Hinton broth (MHB) (pH≈7.2-7.4) with supplements according to the bacterial species studied: • MHB alone for the non-exigent species, • MHB+3% lysed horse blood for the streptococci, Listeria and Neisseria, • MHB+hemin 15 mg/l+NAD 15 mg/l+yeast extract 5 g/l for Haemophilus.
The bacterial inoculum was prepared from re-isolation performed on: • CLED agar: non-exigent strains, • blood agar+5% goat blood: streptococci, Listeria and Neisseria • chocolate agar+5% goat blood: Haemophilus, Neisseria.
The final inoculum was at ≈5·10^5 cfu/ml (colony forming units). 50 μl of bacterial inoculum was distributed per well containing an equal volume of the peptide solution diluted by half in the appropriate culture medium depending on the bacterial species (0.5 to 512 μg/ml). The cultures were incubated at 35° C. in ambient air for 16 to 20 hours (20 to 24 h for the streptococci).
Determination of the MBC values was performed after inhibition and reading of the MIC plates:
A volume of 3 μl of each concentration of antibiotic was deposited on the agar media: • MH: for the non-exigent strains, • MH+5% sheep blood: for the streptococci, Listeria, Bacillus and Neisseria, • HTM: for the Haemophilus.
The agars were incubated for 18 h at 35° C. in atmosphere: • in ambient air: for the non-exigent strains, • with 5-6% of CO2: for the streptococci, Listeria, Haemophilus and Neisseria.
The MBC is the lowest concentration of antibiotic that inhibits all bacterial growth on the transplant agar (<0. 1% of survivors).

The subject of data set [15] is Bacillus cereus ATCC 11778. Format: cell-based.
Data set [16] has as its system Bacillus subtilis ATCC 6633. Format: cell-based.
Data set [17] deals with Enterococcus faecalis ATCC 19433. The format is cell-based.
For data set [18], the system named is Enterococcus faecalis ATCC 29212. The format is cell-based.
The test system of data set [19] is Enterococcus faecium ATCC 35667. Format: cell-based.
The subject of data set [20] is Micrococcus luteus ATCC 9341. Format: cell-based.
For data set [21], the system named is Staphylococcus aureus ATCC 14154. Format: cell-based.
Data set [22] concerns Staphylococcus aureus ATCC 25923. Format: cell-based.
Data set [23] has as its system Staphylococcus epidermidis ATCC 12228. Format: cell-based.
In data set [24] the test system is Streptococcus agalactiae ATCC 13813. Format: cell-based.
The subject of data set [25] is Streptococcus pneumoniae ATCC 6303. The format is cell-based.
Data set [26] relates to Streptococcus pneumoniae ATCC 49619. Format: cell-based.
In data set [27] the test system is Streptococcus pyogenes ATCC 19615. Format: cell-based.
A further data set deals with C. neoformans Cn52D. Format: cell-based, Cryptococcus neoformans. The method, then:
D. Determination of the miminimal inhibitory concentration (MIC) in liquid medium for the Filamentous Fungi and Yeast
Peptide concentrations tested: from 0.2 μg/ml to 100 μg/ml.

Data set [28] in a line: In vivo toxicity: maximal tolerated dose (MTD). Particulars: mouse, female OFI mice, intravenous perfusion approx. 15 minutes, 28 days after an injection. The method, then:
The maximal tolerated dose (MTD) for each peptide was determined on female OFI mice at 28 days after an injection. The MTD was defined as the maximal nonlethal dose that could be injected. The peptides were administered by the intravenous route as a perfusion of approximately 15 minutes duration. The injection volume was 10 μl/g, the perfusion rate was 1.2 ml/hour and the excipient was a solution of NaCl at 0.8%.

The subject of data set [29] is Shigella flexneri ATCC 112022.
The subject of another data set is human erythrocytes. Put plainly: Hemolytic activity on human erythrocytes. Particulars: 30 minutes, 0 to 500 μg/ml, absorbance 414 nm.
The test system of the next data set is bacteria. Put plainly: In vitro antibacterial properties under standard evaluation conditions (incubation of 18 hours). Format: cell-based. The note with it: concentrations described in the literature. The source says:
In contrast, I unexpectedly discovered that KLAKLAK (SEQ ID NO: 11) is capable of conferring antibacterial and/or antifungal properties on peptides comprising this motif and a peptide sequence not having antibacterial and/or antifungal properties.

Data set [30] relates to three strains of bacteria (E. coli, P. aeruginosa and S. aureus). The note with it: incubation period of 4 hours; cited from earlier work.
The conditions of data set [31]: Javadpour et al. 1996; cited from earlier work.

Usually MTD stands for the largest dose that counted as tolerated. Low readings indicate a narrow tolerated range, high ones a wide tolerated range.

In brackets after ≈: the same amount, converted by molar mass. Like-named read-outs stand apart in the source and are kept apart here. Where a SMILES comes first, the peptide text is derived from it.

Description for human erythrocytes: 1·10^6 human erythrocytes were incubated for 30 minutes with increasing concentrations of peptides (from 0 to 500 μg/ml) in a final volume of 150 μl. The hemolytic activity was evaluated by measurement of the absorbance (Abs) at the wave length 414 nm (Absorbance of hemoglobin) of the cellular supernatants. The absorbance of the supernatant after incubation of the erythrocytes in water corresponds to 100% (Abs100) of hemolysis and the absorbance of the supernatant after incubation of the erythrocytes in PBS corresponds to 0% of hemolysis (Abs0). The hemolytic activity of the peptides expressed in percentage corresponds to (Abspeptide−Abs0)/Abs100×100.

With `CC(C)C[C@H](NC(=O)CNC(=O)[C@H](CCCNC(=N)N)NC(=O)[C@H](CCCCN)NC(=O)[C@@H](N)C(C)C)C(=O)N[C@@H](CCCCN)C(=O)N[C@@H](CC(C)C)C(=O)N[C@@H](CCCCN)C(=O)N[C@@H](CC(C)C)C(=O)N[C@@H](C)C(=O)N[C@@H](CCCCN)C(=O)N[C@@H](CC(C)C)C(=O)N[C@@H](C)C(=O)N[C@@H](CCCCN)C(=O)N[C@@H](CCCCN)C(=O)N[C@@H](CC(C)C)C(=O)N[C@@H](C)C(=O)N[C@@H](CCCCN)C(=O)N[C@@H](CC(C)C)C(=O)N[C@@H](C)C(=O)N[C@@H](CCCCN)C(=O)O` [Peptide 1] (H-VKRGLKLKLAKLAKKLAKLAK-OH; N-terminus and C-terminus assumed), the MBC in data set [1] stood at 16 µg/mL (≈ 6.9 µM); in data set [2], 16 µg/mL (≈ 6.9 µM); in data set [3], 256 µg/mL (≈ 110 µM); in [4] it was 16 µg/mL (≈ 6.9 µM); in [5] it was 16 µg/mL (≈ 6.9 µM); in [6], 8 µg/mL (≈ 3.45 µM). Moreover, the MBC in [7] is 64 µg/mL (≈ 27.6 µM); in [8] it was above 512 µg/mL; in [9] it was 128 µg/mL (≈ 55.2 µM); against Neisseria sica ATCC 9913, 128 µg/mL (≈ 55.2 µM); in [10], 256 µg/mL (≈ 110 µM); in [11], above 512 µg/mL. The MBC in [12] was 8 µg/mL (≈ 3.45 µM); in data set [13], above 512 µg/mL; in data set [14], 4 µg/mL (≈ 1.72 µM); in data set [15], 128 µg/mL (≈ 55.2 µM); in [16], 8 µg/mL (≈ 3.45 µM); in data set [17], above 512 µg/mL. In addition, the MBC in data set [18] was above 512 µg/mL; in data set [19], above 512 µg/mL; in data set [20], 4 µg/mL (≈ 1.72 µM); in data set [21] it was 128 µg/mL (≈ 55.2 µM); in data set [22] it was 64 µg/mL (≈ 27.6 µM); in data set [23], 4 µg/mL (≈ 1.72 µM). Besides, the MBC in data set [24] turned out to be 128 µg/mL (≈ 55.2 µM); in data set [25], 64 µg/mL (≈ 27.6 µM); in data set [26], 256 µg/mL (≈ 110 µM); in data set [27], 64 µg/mL (≈ 27.6 µM); in data set [29] it was 32 µg/mL (≈ 13.8 µM). Further, the MIC was found to be 8 µg/mL (≈ 3.45 µM) in data set [1]; 16 µg/mL (≈ 6.9 µM) in data set [2]; 256 µg/mL (≈ 110 µM) in data set [3]; 16 µg/mL (≈ 6.9 µM) in data set [4]; 16 µg/mL (≈ 6.9 µM) in data set [5]; 8 µg/mL (≈ 3.45 µM) in data set [6]. In addition, the MIC in data set [7] was 64 µg/mL (≈ 27.6 µM); in data set [8], above 512 µg/mL; in [9], 128 µg/mL (≈ 55.2 µM); against Neisseria sica ATCC 9913, 4 µg/mL (≈ 1.72 µM); in data set [10], 128 µg/mL (≈ 55.2 µM); in [11], 512 µg/mL (≈ 221 µM). For the same molecule, the MIC was 8 µg/mL (≈ 3.45 µM) in data set [12]; above 512 µg/mL in data set [13]; 4 µg/mL (≈ 1.72 µM) in data set [14]; 128 µg/mL (≈ 55.2 µM) in data set [15]; 8 µg/mL (≈ 3.45 µM) in data set [16]; above 512 µg/mL in [17]. Besides, the MIC in data set [18] is above 512 µg/mL; in [19] it was 128 µg/mL (≈ 55.2 µM); in [20], 4 µg/mL (≈ 1.72 µM); in [21] it was 64 µg/mL (≈ 27.6 µM); in data set [22] it was 64 µg/mL (≈ 27.6 µM); in data set [23], 4 µg/mL (≈ 1.72 µM). Besides, the MIC in data set [24] is 128 µg/mL (≈ 55.2 µM); in data set [25], 64 µg/mL (≈ 27.6 µM); in data set [26] it was 128 µg/mL (≈ 55.2 µM); in data set [27] it was 64 µg/mL (≈ 27.6 µM); in the data set with C. neoformans Cn52D it was 12.5 µg/mL (≈ 5.39 µM); in data set [29], 16 µg/mL (≈ 6.9 µM). In data set [28], this molecule registered an MTD at 28 days above 23.2 mg/kg.
With `CC(C)C[C@H](NC(=O)[C@H](CCCCN)NC(=O)CNC(=O)[C@H](CCCCN)NC(=O)[C@H](CCCCN)NC(=O)[C@H](CCCCN)NC(=O)[C@H](CCCNC(=N)N)NC(=O)[C@H](CCCCN)NC(=O)CNC(=O)[C@H](CCCCN)NC(=O)[C@H](C)NC(=O)[C@H](CC(C)C)NC(=O)[C@H](CCCCN)NC(=O)[C@H](C)NC(=O)[C@H](CC(C)C)NC(=O)[C@H](CCCCN)NC(=O)[C@H](CCCCN)NC(=O)[C@H](C)NC(=O)[C@H](CC(C)C)NC(=O)[C@H](CCCCN)NC(=O)[C@H](C)NC(=O)[C@H](CC(C)C)NC(=O)[C@@H](N)CCCCN)C(=O)NCC(=O)N[C@@H](CCCCN)C(=O)N[C@@H](CCCCN)C(=O)N[C@@H](CCCNC(=N)N)C(=O)N[C@@H](CC(=O)O)C(=O)N1CCC[C@H]1C(=O)O` [Peptide 3] (H-KLAKLAKKLAKLAKGKRKKKGKLGKKRDP-OH; N-terminus and C-terminus assumed), the MIC in data set [6] is 64 µg/mL (≈ 19.8 µM); in [11] it was 64 µg/mL (≈ 19.8 µM); in [18] it was 64 µg/mL (≈ 19.8 µM); in [22], 64 µg/mL (≈ 19.8 µM); in data set [25] it was above 500 µg/mL; in the data set on C. neoformans Cn52D (tested 0.2 to 100 μg/ml), 1.56 µg/mL (≈ 0.483 µM). Also, the hemolytic activity entry in the data set with human erythrocytes is “did not exhibit hemolytic activity”.
For the molecule “KLAKLAKKLAKLAK [14-mer linear peptide, literature 14-mer linear peptide (Javadpour et al. 1996)]”, the antibacterial activity result in the data set with bacteria is “did not reveal any biological activity”; in data set [30], “showed activity”. In addition, in data set [31], the hemolysis entry is given as “nonhemolytic”.
